In patent publication US20250006331A1, “QUANTITATIVE SYSTEMS PHARMACOLOGY METHODS FOR IDENTIFYING THERAPEUTICS FOR DISEASE STATES” (UNIVERSITY OF PITTSBURGH-OF THE COMMONWEALTH SYSTEM OF …, priority 2021, published 2025):
Entries after “also recorded” stand apart in the source; their conditions may differ.

What was measured:
[1] = system: LAMPS models; test: LAMPS model functionality (albumin and blood urea nitrogen secretion); type: cell-based, human; settings: 10-day time course, vs vehicle control, 10 μM OCA, 30 μM PGZ; for Albumin curves / Blood urea nitrogen curves: NAFLD disease media, 10 μM TGZ, Vorinostat 1.7 or 5 μM, AS601245 1 or 3 μM, pioglitazone + vorinostat combination
From the text: (§1) LAMPS cell sources and cell culture. A single lot of selected cryopreserved primary human hepatocytes (lot #Hu1960) with >90% viability and re-plating efficiency post-thaw were purchased from ThermoFisher. A single lot of selected cryopreserved primary human liver sinusoidal endothelial cells (LSEC; lot #: HL160019) were purchased from LifeNet Health (formerly Samsara Sciences; Virginia Beach, VA.). The human monoblast cell line, THP-1, used to generate Kupffer cells, was purchased from ATCC (Rockville, MD). LX-2 human stellate cells were acquired from Sigma Millipore (Billerica, MA). The LX-2 cell is an immortalized human hepatic stellate cell that constitutively expresses key receptors regulating hepatic fibrosis, and proliferates in response to PDGF, a prominent mitogen contributing to liver fibrosis (Bonner 2004, Xu, Hui et al. 2005).
Primary human hepatocytes were thawed following the manufacturer's recommendations using Cryopreserved Hepatocyte Recovery Medium (CHRM; ThermoFisher) and were initially cultured in hepatocyte plating media (HPM) containing Williams E medium (11.5 mM glucose) supplemented with 5% fetal bovine serum, […] penicillin-streptomycin and 2 mM L-glutamine. For perfusion in LAMPS models, cells were maintained in normal fasting (NF), early metabolic syndrome (EMS), or late metabolic syndrome (LMS) media. The description of components of these media types is detailed in the Metabolic Syndrome Media section below. LSECs were thawed and expanded in endothelial cell basal medium-2 (EBM-2) supplemented with the endothelial growth medium-2 (EGM-2) supplement pack (Lonza; Alpharetta, GA; #CC-4176). THP-1 cells were cultured in suspension in RPMI-1640 medium (ThermoFisher) supplemented with 10% fetal bovine serum (FBS; ThermoFisher), 100 μg/mL penicillin streptomycin (ThermoFisher), and 2 mM L-glutamine (ThermoFisher). THP-1 cells were differentiated into mature macrophages by treatment with 200 ng/mL phorbol myristate acetate (Sigma Aldrich) for 48 h. Differentiated THP-1 monocytes release human tumor necrosis factor alpha (TNF-α) and interleukin-6 (IL-6) in response to LPS treatment, a condition reported to induce the immune mediated liver toxic response in in vitro models (Jang, Choi et al. 2006, Kostadinova, Boess et al. 2013). LX-2 cells were cultured in Dulbecco's Modified Eagle Medium (DMEM; ThermoFisher) supplemented with 2% FBS and 100 μg/mL penicillin streptomycin.
Metabolic syndrome media. We developed medias that were designed to create disease progression from Normal Fasting (NF) to early metabolic syndrome (EMS or NAFLD) and late metabolic syndrome (LMS or T2D) over a two-week period in the LAMPS platform (Mohammed 2021). For the studies described here, we used both NF and EMS media formulations. […] We then adjusted these components to reflect the pathophysiological conditions as described below (Alford, Bloodm et al. 1977, Kuhl 1977, Kim, Kim et al. 2000, Chitturi, Abeygunasekera et al. 2002, de Almeida, Cortez-Pinto et al. 2002, Valencia, Marin et al. 2002, Edgerton, Ramnanan et al. 2009, Winnick, An et al. 2009).
Early Metabolic Syndrome (EMS) Media: Early metabolic syndrome (EMS) medium was derived from the NF media formulation with the following modifications: 11.5 mM glucose, 10 nM insulin, […] glucagon, 200 μM sodium oleate and 100 μM palmitic acid (Sigma).
(§2) LAMPS model assembly and maintenance. […] The experimental setup workflow is described in the Supplement.

[2] = system: LAMPS models; test: LAMPS hepatocellular steatosis (LipidTOX labeling); type: cell-based, human; settings: for Hepatocellular steatosis / lipid accumulation (LipidTOX intensity): NAFLD disease media, day 10, vs vehicle control, 10 μM TGZ, Vorinostat 1.7 or 5 μM, AS601245 1 or 3 μM, pioglitazone + vorinostat combination; for Effect on steatosis: LAMPS NAFLD/MAFLD model, summary statement
Experimental: as §2
Steatosis measurements. Steatosis measurements were performed using HCS LipidTOX Deep Red Neutral Lipid Stain (ThermoFisher) after completion of the experimental time course (Day 10) in LAMPS models as previously described (Lee-Montiel, George et al. 2017) and are outlined in detail in the Supplemental Methods section.

[3] = system: TNF-α, IL-6, IL-8, IL-1α and MCP-1; test: LAMPS production of pro-inflammatory cytokines; type: cell-based, human; settings: for Inflammatory cytokine production: LAMPS
From the text: as §2

[4] = system: Pro-collagen 1A1 and TIMP-1; test: LAMPS secretion of pro-fibrotic markers (ELISA); type: cell-based, human; settings: for Effect on secreted pro-fibrotic markers / fibrosis: LAMPS NAFLD/MAFLD model, summary statement; for Decrease in secretion of the pro-fibrotic marker Pro-collagen 1a1: 30 μM PGZ vs vehicle, decrease not statistically significant; for Decrease in secretion of the pro-fibrotic marker Pro-Col 1a1: 10 μM TGZ vs vehicle, decrease is not significant
From the text: as §2

[5] = system: LAMPS models; test: LAMPS cytotoxicity (lactate dehydrogenase secretion); settings: for Lactate dehydrogenase curves: 10-day time course, vs vehicle control, 10 μM OCA, 30 μM PGZ, 10 μM TGZ
Experimental: LAMPS model assembly and maintenance. LAMPS studies were carried out as previously described (Vernetti, Senutovitch et al. 2016, Lee-Montiel, George et al. 2017, Miedel, Gavlock et al. 2019, Mohammed 2021) with modification to include the use of human primary liver sinusoidal endothelial cells (LSECs). A single chamber commercial microfluidic device (HAR-V single channel device, SCC-001, Nortis, Inc. Seattle, WA) was used for LAMPS studies. For all steps involving injection of media and/or cell suspensions into LAMPS devices, 100-150 μl per device was used to ensure complete filling of fluidic pathways, chamber and bubble traps. The percentages of hepatocytes, THP-1, LSEC, and LX-2 cells are consistent with the scaling used in our previously published models (Vernetti, Senutovitch et al. 2016, Lee-Montiel, George et al. 2017, Miedel, Gavlock et al. 2019, Mohammed 2021). For the studies described here, LAMPS models were set up and maintained for 10 days under flow.
Secretome measurements. Efflux media from LAMPS devices was collected on days 2,4,6,8, and 10 to measure albumin, blood urea nitrogen, and lactate dehydrogenase. […] The CytoTox 96 for lactate dehydrogenase (LDH) and the urea nitrogen test were purchased from Promega (Madison, WI) and Stanbio Laboratory (Boerne, TX), respectively. […] All efflux measurements were carried out according to the manufacturer's protocol and obtained as described previously (Vernetti, Senutovitch et al. 2016, Lee-Montiel, George et al. 2017, Li, George et al. 2018, Miedel, Gavlock et al. 2019).
LAMPS models were maintained for 10 days in MAFLD disease media containing either the indicated concentration of drug or DMSO vehicle control. We determined drug concentrations to test in LAMPS models guided by the CMap database and by cytotoxicity testing in primary hepatocytes (Table S8). […] We examined a panel of metrics to monitor disease-specific phenotypes including model functionality (albumin and blood urea nitrogen production) and cytotoxicity (lactate dehydrogenase secretion), hepatocellular steatosis (LipidTOX Lipid Stain from ThermoFisher Scientific labeling), stellate cell activation (α-smooth muscle actin staining), and the production of a panel of pro-inflammatory cytokines and fibrotic markers (Pro-collagen 1A1 and TIMP-1) (Mohammed et. al, 2021).

[6] = system: LX-2 human stellate cells; test: LAMPS stellate cell activation (α-smooth muscle actin staining); type: cell-based; settings: for Effect on stellate cell activation: LAMPS NAFLD/MAFLD model, summary statement; for Stellate cell activation (α-SMA intensity): LAMPS, 10 μM OCA, 30 μM PGZ
From the text: as §1, §2
Stellate cell activation. Staining for LX-2 cell expression of α-smooth muscle actin (α-SMA) was performed after completion of the experimental time course (Day 10) in LAMPS models as previously described (Vernetti, Senutovitch et al. 2016, Li, George et al. 2018) and are outlined in detail in the Supplemental Methods section.

[7] = observational trial of adult males [Vega, G. L., et al. 2008]; cited from earlier work
[8] = NAFLD disease media, day 10, vs vehicle control, Vorinostat 1.7 or 5 μM, AS601245 1 or 3 μM, pioglitazone + vorinostat combination
[9] = LAMPS, EMS media, 10 days, 10 μM OCA
[10] = LAMPS, NAFLD disease media, 10 days, 10 μM OCA, 30 μM PGZ
[11] = NAFLD disease media, day 10, vs vehicle control, 10 μM TGZ, Vorinostat 1.7 or 5 μM, pioglitazone + vorinostat combination
[12] = LAMPS, NAFLD disease media, 10 days, vs vehicle, 10 μM OCA, 30 μM PGZ, 10 μM TGZ, Vorinostat 1.7 or 5 μM, pioglitazone + vorinostat combination
[13] = EMS media, vorinostat 1.7 or 5 μM, pioglitazone 30 μM + vorinostat 1.7 or 5 μM
[14] = EMS media, day 10, vs vehicle, vorinostat 1.7 or 5 μM, pioglitazone 30 μM + vorinostat 1.7 or 5 μM
[15] = LAMPS, EMS media, 10 days, vs vehicle, 10 μM OCA, 30 μM PGZ, vorinostat 1.7 or 5 μM, pioglitazone 30 μM + vorinostat 1.7 or 5 μM

SMILES | Albumin curves [1] | Blood urea nitrogen curves [1] | Hepatocellular steatosis / lipid accumulation (LipidTOX intensity) ([2]; LAMPS, 10 μM OCA, 30 μM PGZ) | Inflammatory cytokine production [3, 8] | Effect on secreted pro-fibrotic markers / fibrosis [4] | Decrease in secretion of the pro-fibrotic marker Pro-collagen 1a1 [4, 9] [%] | Decrease in secretion of the pro-fibrotic marker Pro-Col 1a1 [4, 10] [%] | Lactate dehydrogenase curves ([5]; NAFLD disease media) | Effect on steatosis [2] | Effect on stellate cell activation [6] | Stellate cell activation (α-SMA intensity) [6, 11] | Secreted levels / production of TIMP-1 [4, 12] | also measured
N#CC(c1ccnc(NCCc2cccnc2)n1)c1nc2ccccc2s1 (stereo not shown) [AS601245] | no significant differences | no significant differences | no effect | dose-dependent increase |  |  |  |  |  |  |  |  | 
CC[C@H]1[C@@H](O)[C@@H]2[C@H](CC[C@]3(C)[C@@H]([C@H](C)CCC(=O)O)CC[C@@H]23)[C@@]2(C)CC[C@@H](O)C[C@@H]12 [OCA, obeticholic acid] |  |  |  |  | no significant effect | ~20 | ~20 | no significant differences |  |  |  |  | 
CCc1ccc(CCOc2ccc(CC3SC(=O)NC3=O)cc2)nc1 (stereo not shown) [PGZ, pioglitazone] |  |  |  |  | no significant effect | ~20 | ~20 | no significant differences |  |  |  |  | 
Cc1c(C)c2c(c(C)c1O)CCC(C)(COc1ccc(CC3SC(=O)NC3=O)cc1)O2 (stereo not shown) [TGZ, troglitazone] | no significant differences | no significant differences | significant decrease |  | reduced steatosis but not fibrosis markers; also recorded: no significant effect |  | ~20 | no significant differences | reduced | reduced | significant decrease | no significant change | 
O=C(CCCCCCC(=O)Nc1ccccc1)NO [Vorinostat, suberoylanilide hydroxamic acid] | no significant differences | no significant differences | no effect | significant decrease | robustly mitigated; also recorded: robustly reduced; also recorded: significant inhibition |  |  |  | without an impact; also recorded: without significant amelioration; also recorded: without an appreciable effect | robustly reduced | significant decrease | significant decrease | Albumin secretion profiles [1, 13]: no significant differences; Blood urea nitrogen secretion profiles [1, 13]: no significant differences; Steatosis / lipid accumulation (LipidTOX intensity) ([2]; LAMPS, EMS media, day 10, vs vehicle, 10 μM OCA, 30 μM PGZ, vorinostat 1.7 or 5 μM, pioglitazone 30 μM + vorinostat 1.7 or 5 μM): no significant effect; Stellate cell activation (α-SMA intensity) [6, 14]: significant decrease; Secreted levels / production of TIMP-1 [4, 15]: significant decrease; Secreted levels / production of the pro-fibrotic marker Pro-Col 1a1 [4, 15]: significant decrease; Production of the pro-fibrotic marker pro-collagen 1a1 ([4]; LAMPS, NAFLD disease media, day 10, vs vehicle control, Vorinostat 1.7 or 5 μM, pioglitazone + vorinostat combination): significant decrease; Effect on inflammatory markers / inflammation ([3]; LAMPS NAFLD/MAFLD model, summary statement): robustly mitigated; also recorded: robustly reduced; also recorded: significant inhibition; Inflammatory cytokine production [3, 14]: significant decrease; LDH secretion ([5]; EMS media, days 8 and 10, 5 μM vorinostat vs vehicle control): significant decrease; LDH secretion ([5]; NAFLD disease media, days 8 and 10, 5 μM Vorinostat vs vehicle control): significant decrease
C[C@]12COC(=O)C[C@@H]1CC[C@@H]1[C@@H]2CC[C@@]2(C)[C@H]1CC[C@]2(C)O [oxandrolone] |  |  |  |  |  |  |  |  |  |  |  |  | Hepatic ketogenesis [7]: promoted hepatic ketogenesis
